According to ChEMBL document CHEMBL5346863, “Discovery of substituted benzyloxy-benzylamine inhibitors of acetyltransferase Eis and their anti-mycobacterial activity” (Eur J Med Chem, 2022):
Converted amounts (≈) assume the structure as drawn.

Each compound was assayed on Mycobacterium tuberculosis variant bovis (assay: Antibacterial activity against Mycobacterium bovis BCG ATCC 35734 assessed as bacterial growth inhibition incubated for 2 to 3 weeks by resazurin dye based assay). Settings: time 2-3 weeks.
Format: functional

First: Fc1ccc(COc2cccc(CNCc3ccncc3)c2)cc1
Second: Clc1ccc(COc2cccc(CNCc3ccncc3)c2)cc1
The MIC of the first is higher: greater than 62.5 µM for the first, 62.5 µM (≈ 21.2 µg/mL) for the second.

`c1ccc(COc2ccc(CNCc3cccnc3)cc2)cc1` and `c1ccc(COc2ccc(CNCc3ccncc3)cc2)cc1` cannot be ordered by MIC: greater than 62.5 µM for the first, greater than 62.5 µM for the second.

`c1ccc(COc2ccccc2CNCc2cccnc2)cc1` and `c1ccc(COc2ccccc2CNCc2ccncc2)cc1` cannot be ordered by MIC: greater than 62.5 µM for the first, greater than 62.5 µM for the second.

First: Clc1ccc(COc2ccc(CNCc3ccncc3)cc2)cc1
Second: Fc1ccc(COc2ccc(CNCc3ccncc3)cc2)cc1
The MIC of the first is 2-fold lower: 31.3 µM (≈ 10.6 µg/mL) for the first, 62.5 µM (≈ 20.1 µg/mL) for the second.

First: Fc1ccc(COc2ccccc2CNCc2cccnc2)cc1
Second: Brc1ccc(COc2ccccc2CNCc2cccnc2)cc1
The MIC of the first is higher: greater than 62.5 µM for the first, 62.5 µM (≈ 24 µg/mL) for the second.

`Fc1ccc(COc2ccc(CNCc3cccnc3)cc2)cc1` and `Clc1ccc(COc2ccc(CNCc3cccnc3)cc2)cc1` are the same in MIC: 62.5 µM (≈ 20.1 µg/mL) for the first, 62.5 µM (≈ 21.2 µg/mL) for the second.

Compared with `Fc1ccc(COc2cccc(CNCc3cccnc3)c2)cc1`, `Clc1ccc(COc2cccc(CNCc3cccnc3)c2)cc1` is lower in MIC: greater than 62.5 µM for the first, 62.5 µM (≈ 21.2 µg/mL) for the second.

Compared with `Clc1cccc(COc2ccccc2CNCc2ccccc2)c1`, `Clc1ccc(COc2ccccc2CNCc2ccccc2)cc1` is 4-fold higher in MIC: 15.6 µM (≈ 5.27 µg/mL) for the first, 62.5 µM (≈ 21.1 µg/mL) for the second.

`Clc1ccc(COc2cccc(CNCc3ccccc3)c2)cc1` and `Fc1ccc(COc2cccc(CNCc3ccccc3)c2)cc1` are the same in MIC: 7.8 µM (≈ 2.64 µg/mL) for the first, 7.8 µM (≈ 2.51 µg/mL) for the second.

`Brc1ccc(COc2ccccc2CNCc2ccncc2)cc1` and `Clc1ccc(COc2ccccc2CNCc2ccncc2)cc1` are the same in MIC: 62.5 µM (≈ 24 µg/mL) for the first, 62.5 µM (≈ 21.2 µg/mL) for the second.

First: Cc1ccc(COc2ccc(CNCc3ccccc3)cc2)cc1
Second: Clc1ccc(COc2ccc(CNCc3ccccc3)cc2)cc1
The MIC of the first is 2-fold lower: 3.9 µM (≈ 1.24 µg/mL) for the first, 7.8 µM (≈ 2.64 µg/mL) for the second.

First: c1ccc(CNCc2ccc(OCc3ccc(-c4ccccc4)cc3)cc2)cc1
Second: c1ccc(CNCc2ccc(OCc3ccccc3)cc2)cc1
The MIC of the first is 8-fold lower: 3.9 µM (≈ 1.48 µg/mL) for the first, 31.3 µM (≈ 9.5 µg/mL) for the second.

Going from `Brc1ccc(COc2ccccc2CNCc2ccccc2)cc1` to `Fc1ccc(COc2ccccc2CNCc2ccccc2)cc1`, the MIC rises from 62.5 µM (≈ 23.9 µg/mL) to greater than 62.5 µM.

First: COc1ccc(COc2ccc(CNCc3ccccc3)cc2)cc1
Second: Fc1ccc(COc2ccc(CNCc3ccccc3)cc2)cc1
The MIC of the first is lower: 7.8 µM (≈ 2.6 µg/mL) for the first, greater than 62.5 µM for the second.

First: CC(C)(C)c1ccc(COc2ccc(CNCc3ccccc3)cc2)cc1
Second: Brc1ccc(COc2ccc(CNCc3ccccc3)cc2)cc1
The MIC of the first is 1.9-fold lower: 2 µM (≈ 0.719 µg/mL) for the first, 3.9 µM (≈ 1.49 µg/mL) for the second.

Going from `CC(C)c1ccc(COc2ccc(CNCc3ccccc3)cc2)cc1` to `Brc1cccc(COc2ccc(CNCc3ccccc3)cc2)c1`, the MIC rises from 1 µM (≈ 0.345 µg/mL) to 7.8 µM (≈ 2.98 µg/mL) (7.8-fold).

First: Brc1ccccc1COc1ccc(CNCc2ccccc2)cc1
Second: c1ccc(CNCc2ccccc2OCc2ccccc2)cc1
The MIC of the first is 8-fold lower: 7.8 µM (≈ 2.98 µg/mL) for the first, 62.5 µM (≈ 19 µg/mL) for the second.

First: Clc1cccc(COc2ccccc2CNCc2cccnc2)c1
Second: Clc1cccc(COc2ccccc2CNCc2ccncc2)c1
The MIC of the first is lower: 62.5 µM (≈ 21.2 µg/mL) for the first, greater than 62.5 µM for the second.

In the case of `NNC(=O)c1ccncc1` [ISONIAZID], the MIC is reported as no more than 0.25 µM.
